The test system of assay [1] is ARPE-19 cells stably expressing XBP1 (a.a. 1-376). Description: Cellular XBP1 splicing assay (NanoLuc luciferase, thapsigargin). The format is cell-based. As to conditions: thapsigargin 150 nM. On the procedure: Cellular XBP1 Splicing Assay
ARPE-19 cells stably expressing XBP1 (a.a. 1-376) with nano-luciferase gene sequence linked so it is in frame when XBP1 is spliced, were cultured in F12 media, 10% FBS, 0.044% sodium bicarbonate, 150 μg/ml hygromycin B and seeded for assays at 5,000 cells in 384 well plates in culture media without hygromycin B and incubated at 37° C./5% CO2. After overnight incubation test compounds were added to the cell plate in a 10-point ½ log dilution series in duplicate (final DMSO concentration 0.117%). After further incubation of 30 minutes thapsigargin was added (final concentration 150 nM) and then another 4 hour incubation. A NanoLuc luciferase assay (Promega) was used according to the manufacturer's instructions to detect the luciferase and luminescence measured on a luminometer (EnVision, PerkinElmer). IC50 values calculated by fitting a sigmoidal curve to percent inhibition of control of compound concentration.

Assay [2] has as its target T1, IRE1α (Homo sapiens, UniProt O75460).
T1 construct: purchased Signal Chem E31-11G
Briefly: Biochemical assay: inhibition of RNase activity of IRE1α. To be noted: enzyme 0.325 nM, substrate 100 nM, 20 minutes. On the procedure:
Biochemical Assay: Inhibition of RNase Activity of IRE1α
The RNase reactions were performed in 384 well black ProxiPlate-384 Plus plates (PERKIN Elmer) using 50 mM Tris assay buffer with 0.5 mM MgCl2, 10 mM KCl, 0.03% Tween, 2 mM DTT and 1% DMSO. Test compounds were prepared on the day of assay and dispensed using D300 digital dispenser as a 10-point ½ log dilution series in duplicate, normalized to a final DMSO concentration of […]. Test compounds were pre-incubated for 30 min at room temperature with IRE1α kinase (E31-11G from Signal Chem) in 2.5 μL of assay buffer. Then 2.5 μl of assay buffer containing substrate (5′ Alexa Fluor 647-rCrArU rGrUrC rCrGrC rArGrC rGrCrArUrG-Iowa Black RQ quencher 3′) added, giving a final concentration of enzyme of 0.325 nM and of substrate of 100 nM. After 20 minutes incubation at room temperature the reactions were stopped by added 5 μL of 5M urea, incubated at room temperature for 10 minutes and fluorescence measured on a plate reader (EnVision, PerkinElmer). IC50 values calculated by fitting a sigmoidal curve to percent inhibition of control versus compound concentration.

Each structure is given as a SMILES string.

T1 sequence (O75460 468-977 limits assumed): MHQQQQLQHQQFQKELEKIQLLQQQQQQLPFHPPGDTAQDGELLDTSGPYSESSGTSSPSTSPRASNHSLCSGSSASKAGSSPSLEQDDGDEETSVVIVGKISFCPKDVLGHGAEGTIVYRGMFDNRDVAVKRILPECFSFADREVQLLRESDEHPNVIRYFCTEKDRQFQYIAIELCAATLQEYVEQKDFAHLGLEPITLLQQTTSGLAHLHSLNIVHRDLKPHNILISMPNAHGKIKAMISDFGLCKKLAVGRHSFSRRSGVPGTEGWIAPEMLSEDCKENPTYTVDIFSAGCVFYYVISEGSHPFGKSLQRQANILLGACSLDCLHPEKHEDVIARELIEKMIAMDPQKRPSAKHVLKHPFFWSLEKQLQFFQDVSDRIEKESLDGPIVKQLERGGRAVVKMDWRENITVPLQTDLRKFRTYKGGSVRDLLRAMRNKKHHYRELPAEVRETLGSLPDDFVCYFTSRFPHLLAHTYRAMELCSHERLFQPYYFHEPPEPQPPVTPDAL

Turning to `CCn1nc(-c2ccc(NS(=O)(=O)c3ccccc3Cl)c(F)c2)c2c(N)ncc(C3=CCC(NC4COC4)CC3)c21` (single isomer, unassigned) [Compound B62, N-(4-(4-amino-1-ethyl-7-(4-(oxetan-3-ylamino)cyclohex-1-en-1-yl)-1H-pyrazolo[4,3-c]pyridin-3-yl)-2-fluorophenyl)-2-chlorobenzenesulfonamide], the IC50 (as a rule, the concentration that gives 50% inhibition) in assay [1] (4 hour) was 400 nM; in assay [2] it was 75 nM. As to `COCCN[C@H]1CC[C@H](c2cnc(N)c3c(-c4cc(F)c(NS(=O)(=O)c5ccc(F)cc5)cc4F)nn(C(C)C)c32)CC1` [Compound A32, N-(4-(4-amino-1-isopropyl-7-((1r,4r)-4-((2-methoxyethyl)amino)cyclohexyl)-1H-pyrazolo[4,3-c]pyridin-3-yl)-2,5-difluorophenyl)-4-fluorobenzenesulfonamide], the IC50 in assay [1] (Homo sapiens, ARPE-19, 4 h) was determined as 110 nM; in assay [2] it was 17 nM. As for `CCn1nc(-c2ccc(NS(=O)(=O)c3cc(C)ccc3F)c(F)c2)c2c(N)ncc(C3=CCC(NC4COC4)CC3)c21` (single isomer, unassigned) [Compound B36, N-(4-(4-amino-1-ethyl-7-(4-(oxetan-3-ylamino)cyclohex-1-en-1-yl)-1H-pyrazolo[4,3-c]pyridin-3-yl)-2-fluorophenyl)-2-fluoro-5-methylbenzenesulfonamide], the 50% inhibitory concentration (IC50) in assay [1] (4 hour) worked out at 210 nM; in assay [2], 51 nM. The corresponding values for `CC(C)n1nc(-c2cc(F)c(NS(=O)(=O)Cc3ccccc3Cl)cc2F)c2c(N)ncc(C3=CCC(NC4COC4)CC3)c21` (single isomer, unassigned) [Compound B7, N-(4-(4-amino-1-isopropyl-7-(4-(oxetan-3-ylamino)cyclohex-1-en-1-yl)-1H-pyrazolo[4,3-c]pyridin-3-yl)-2,5-difluorophenyl)-1-(2-chlorophenyl)methanesulfonamide] are 410 nM and 21 nM. With `CC(CF)NC1CC=C(c2cnc(N)c3c(-c4ccc(NS(=O)(=O)c5ccccc5Cl)c(F)c4)nn(C(C)C)c23)CC1` (single isomer, unassigned) [Compound B40, N-(4-(4-amino-7-(4-((1-fluoropropan-2-yl)amino)cyclohex-1-en-1-yl)-1-isopropyl-1H-pyrazolo[4,3-c]pyridin-3-yl)-2-fluorophenyl)-2-chlorobenzenesulfonamide], the IC50 in assay [1] (4 hour) came to 67 nM; in assay [2] it was 14 nM. On to `COCCN[C@H]1CC[C@H](c2cnc(N)c3c(-c4cc(F)c(NS(=O)(=O)c5cccc(F)c5F)cc4F)nn(C(C)C)c32)CC1` [Compound A25, N-(4-(4-amino-1-isopropyl-7-((1r,4r)-4-((2-methoxyethyl)amino)cyclohexyl)-1H-pyrazolo[4,3-c]pyridin-3-yl)-2,5-difluorophenyl)-2,3-difluorobenzenesulfonamide], for which the IC50 in assay [1] (Homo sapiens, ARPE-19, 4 h) amounted to 25 nM; in assay [2], 9 nM.

As for `COCCN[C@H]1CC[C@H](c2cnc(N)c3c(-c4cc(F)c(NS(=O)(=O)c5cccc(OC)c5)cc4F)nn(C(C)C)c32)CC1` [Compound A11, N-(4-(4-amino-1-isopropyl-7-((1r,4r)-4-((2-methoxyethyl)amino)cyclohexyl)-1H-pyrazolo[4,3-c]pyridin-3-yl)-2,5-difluorophenyl)-3-methoxybenzenesulfonamide], the IC50 in assay [1] (Homo sapiens, ARPE-19, 4 h) is 15 nM; in assay [2] it was 8.9 nM.

With `COCCN[C@H]1CC[C@H](c2cnc(N)c3c(-c4cc(F)c(NS(=O)(=O)Cc5ccccc5F)cc4F)nn(C(C)C)c32)CC1` [Compound A26, N-(4-(4-amino-1-isopropyl-7-((1r,4r)-4-((2-methoxyethyl)amino)cyclohexyl)-1H-pyrazolo[4,3-c]pyridin-3-yl)-2,5-difluorophenyl)-1-(2-fluorophenyl)methanesulfonamide], the concentration for half-maximal inhibition (IC50) in assay [1] (Homo sapiens, ARPE-19, 4 h) worked out at 13 nM; in assay [2], 1.5 nM. With `COCCN[C@H]1CC[C@H](c2cnc(N)c3c(-c4cc(F)c(NS(=O)(=O)c5ccccc5F)cc4F)nn(C(C)C)c32)CC1` [Compound A37, N-(4-(4-amino-1-isopropyl-7-((1r,4r)-4-((2-methoxyethyl)amino)cyclohexyl)-1H-pyrazolo[4,3-c]pyridin-3-yl)-2,5-difluorophenyl)-2-fluorobenzenesulfonamide], the half-maximal inhibitory concentration (IC50) in assay [1] (Homo sapiens, ARPE-19, 4 h) worked out at 20 nM; in assay [2], 12 nM. In the same order, the values of `CC(C)n1nc(-c2cc(F)c(NS(=O)(=O)c3ccccc3F)cc2F)c2c(N)ncc([C@H]3CC[C@H](N(C)C)CC3)c21` [Compound A40, N-(4-(4-amino-7-((1r,4r)-4-(dimethylamino)cyclohexyl)-1-isopropyl-1H-pyrazolo[4,3-c]pyridin-3-yl)-2,5-difluorophenyl)-2-fluorobenzenesulfonamide] are 27 nM and 5.6 nM. In the same order, the values of `CC(C)n1nc(-c2cc(F)c(NS(=O)(=O)c3ccccc3F)cc2F)c2c(N)ncc(C3=CCC(NC4COC4)CC3)c21` (centres unmarked) [Compound B60, N-(4-(4-amino-1-isopropyl-7-(4-(oxetan-3-ylamino)cyclohex-1-en-1-yl)-1H-pyrazolo[4,3-c]pyridin-3-yl)-2,5-difluorophenyl)-2-fluorobenzenesulfonamide] are 240 nM and 79 nM. `Nc1ncc(C2=CCC(NC3COC3)CC2)c2c1c(-c1ccc(NS(=O)(=O)Cc3ccccc3Cl)c(F)c1)nn2C1CC1` (single isomer, unassigned) [Compound B22, N-(4-(4-amino-1-cyclopropyl-7-(4-(oxetan-3-ylamino)cyclohex-1-en-1-yl)-1H-pyrazolo[4,3-c]pyridin-3-yl)-2-fluorophenyl)-1-(2-chlorophenyl)methanesulfonamide]: the half-inhibitory concentration (IC50) was 10 nM in assay [1] (4 hour) and 0.9 nM in assay [2].

`CC(C)n1nc(-c2ccc(NS(=O)(=O)c3ccccc3Cl)c(F)c2)c2c(N)ncc(C3=CCC(NC4CC(F)(F)C4)CC3)c21` (single isomer, unassigned) [Compound B50]: the half-inhibitory concentration (IC50) in assay [1] (4 hour) came out at 25 nM; in assay [2], 5 nM. For `CC(F)CNC1CC=C(c2cnc(N)c3c(-c4ccc(NS(=O)(=O)Cc5ccccc5Cl)c(F)c4)nn(C(C)C)c23)CC1` (single isomer, unassigned) [Compound B43, N-(4-(4-amino-7-(4-((2-fluoropropyl)amino)cyclohex-1-en-1-yl)-1-isopropyl-1H-pyrazolo[4,3-c]pyridin-3-yl)-2-fluorophenyl)-1-(2-chlorophenyl)methanesulfonamide], the IC50 came out at 5.1 nM in assay [1] (4 hour) and 0.5 nM in assay [2].

Consider `COc1ccc(Cl)c(S(=O)(=O)Nc2ccc(-c3nn(C(C)C)c4c(C5=CCC(NC6COC6)CC5)cnc(N)c34)cc2F)c1` (single isomer, unassigned) [Compound B9, N-(4-(4-amino-1-isopropyl-7-(4-(oxetan-3-ylamino)cyclohex-1-en-1-yl)-1H-pyrazolo[4,3-c]pyridin-3-yl)-2-fluorophenyl)-2-chloro-5-methoxybenzenesulfonamide], for which the IC50 in assay [1] (4 hour) was 150 nM; in assay [2], 70 nM.

`CC(C)n1nc(-c2ccc(NS(=O)(=O)c3cc(Cl)ccc3F)c(F)c2)c2c(N)ncc(C3=CCC(NC4COC4)CC3)c21` (racemic) [racemic mixture of B14 & B15, N-(4-(4-amino-1-isopropyl-7-(4-(oxetan-3-ylamino)cyclohex-1-en-1-yl)-1H-pyrazolo[4,3-c]pyridin-3-yl)-2-fluorophenyl)-5-chloro-2-fluorobenzenesulfonamide]: the concentration for half-maximal inhibition (IC50) in assay [1] (Homo sapiens, ARPE-19, 4 h) was 3.3 nM; in assay [2], 60 nM.

As to `CC(F)CN[C@H]1CC[C@H](c2cnc(N)c3c(-c4cc(F)c(NS(=O)(=O)c5ccccc5F)cc4F)nn(C(C)C)c32)CC1` (some centres unmarked) [Compound A63, N-(4-(4-amino-7-((1r,4r)-4-((2-fluoropropyl)amino)cyclohexyl)-1-isopropyl-1H-pyrazolo[4,3-c]pyridin-3-yl)-2,5-difluorophenyl)-2-fluorobenzenesulfonamide], inhibition in assay [1] (Homo sapiens, ARPE-19, 4 h) was half-maximal at 13 nM (IC50). Turning to `CC(C)n1nc(-c2ccc(NS(=O)(=O)c3ccccc3Cl)c(F)c2)c2c(N)ncc(C3=CCC(NC4COC4)CC3)c21` (single isomer, unassigned) [Compound B56, N-(4-(4-amino-1-isopropyl-7-(4-(oxetan-3-ylamino)cyclohex-1-en-1-yl)-1H-pyrazolo[4,3-c]pyridin-3-yl)-2-fluorophenyl)-2-chlorobenzenesulfonamide], the IC50 in assay [1] (4 hour) was 200 nM. In turn, `CCc1ccc(Cl)c(S(=O)(=O)Nc2cc(F)c(-c3nn(C(C)C)c4c3c(N)ncc4[C@H]3CC[C@H](NCCOC)CC3)cc2F)c1` [Compound A62, N-(4-(4-amino-1-isopropyl-7-((1r,4r)-4-((2-methoxyethyl)amino)cyclohexyl)-1H-pyrazolo[4,3-c]pyridin-3-yl)-2,5-difluorophenyl)-2chloro-5-ethylbenzenesulfonamide] had an IC50 in assay [1] (Homo sapiens, ARPE-19, 4 h) of 6 nM.

These data come from patent publication US20220153734A1, “Pyrazolopyridine Compounds For IRE1 Inhibition” (Optikira, LLC, priority 2019, published 2022).
